Experimental data: US7195783B2, “Hypericin and hypericum extract: specific T-type calcium channel blocker, and their use as T-type calcium channel targeted therapeutics” (FX Life Sciences International GmbH, priority 1999, dated 2007)
“Also recorded” adds a separate entry of the source.

Columns and labels:
[1] = system: L-type calcium channels; assay: Whole-cell patch-clamp, L-type calcium current in cultured N1E-115 neuroblastoma cells; type: cell-based, Mouse; details: cultured N1E-115 cells; hypericin 0.1, 1 and 10 uM (FIG. 1)
Method: (§1) Mouse neuroblastoma cells (N1E115) were cultured in Dulbecco's modified Eagle's medium (GIBCO) containing 10% fetal bovine serum at 37° C. in a humidified atmosphere of 5% CO2 in air. The medium was changed every 3–4 days. After mechanical agitation, 3×10^4 cells were replanted in 35 mm tissue culture dishes containing 4 ml of bath solution. After cell attachment, the dish was mounted on the stage of an inverted phase-contrast microscope (Nikon) for Ca^2+ channel current recording. These cells expressed predominately T channel currents. In experiments where L channels were specifically sought, the cells were grown and maintained at confluence for 3–4 weeks under the same culture conditions with the addition of 2% (vol/vol) dimethyl sulfoxide. Three to five days before use, the cells were replanted with the same medium. These cells expressed predominately L channel currents. A small number of these cells also expressed T channel currents.
The whole-cell version of the patch-clamp technique was used. […] Since the peak currents measured with 20 mM Ba^2+ as the charge carrier were usually small (about 200 pA), the series resistance compensation was not usually employed. […] For every single-cell recording, stable readings were first obtained for 5 min; the drug was then added to the bath solution. […]

[2] = system: T-type calcium channel; assay: Whole-cell patch-clamp, T-type calcium current in N1E-115 cells; type: cell-based, Mouse; details: for effect on T-type calcium current: hypericin 0.1 to 10 uM (FIG. 3)
Method: as §1
The whole-cell version of the patch-clamp technique was used. The pipettes had resistance of 2–15 M. Membrane current recordings were made with an Axopatch-1C (Axon Instruments) patch-clamp amplifier. All signals were filtered at 1 kHz and stored in the computer. Since the peak currents measured with 20 mM Ba^2+ as the charge carrier were usually small (about 200 pA), the series resistance compensation was not usually employed. If the capacitive transient overlapped with the onset of the inward current, or if the spatial voltage control was inadequate (i.e., NIE-115 cells with long neural outgrowths), the experimental data were rejected. Unless otherwise specified the current-voltage plots were constructed by using the peak values (corrected for leakage) from the original records for both T and L channel currents. The holding membrane potential was fixed at −80 mV when the T channels were under investigation or at […] when the L channels were studied. […] For every single-cell recording, stable readings were first obtained for 5 min; the drug was then added to the bath solution. […]

[3] = system: L-type calcium current; assay: L-type calcium current in vascular smooth muscle cells (VSMC); type: cell-based; details: vascular smooth muscle cells (FIG. 6)
[4] = system: L-type calcium current; assay: L-type calcium current in ventricular cells from baby rats; type: cell-based; details: ventricular cells from baby rats (FIG. 7)

hypericin
effect on L-type calcium current activity [1]: slight but not significant increase; also recorded: does not significantly affect | inhibition on T-type calcium current ([2]; 0.15 ug/ml of pure hypericin (FIG. 3)): less than 10% | effect on T-type calcium current [2]: inhibited T-type calcium currents in a dose-dependent manner | effect on T-type calcium current ([2]; listed as Hypericin): dose-dependent inhibitory effect | effect on L-type calcium current [3]: did not affect | effect on L-type calcium current [4]: did not affect
